Reference: ChEMBL document CHEMBL4673219, “Novel 5,6-disubstituted pyrrolo[2,3-d]pyrimidine derivatives as broad spectrum antiproliferative agents: Synthesis, cell based assays, kinase profile and molecular docking study” (Bioorg Med Chem, 2018)

Tests used:
SK-MEL-5 [1] = assay: Growth inhibition of human SK-MEL-5 cells assessed as growth percentage at 100 uM incubated for 48 hrs by sulforhodamine B assay relative to control; format: functional; conditions: read-out: Activity
NCI-H460 [2] = assay: Growth inhibition of human NCI-H460 cells assessed as growth percentage at 100 uM incubated for 48 hrs by sulforhodamine B assay relative to control; format: functional; conditions: read-out: Activity
DU-145 [3] = assay: Growth inhibition of human DU-145 cells assessed as growth percentage at 0.01 uM incubated for 48 hrs by sulforhodamine B assay relative to control; format: functional; conditions: read-out: Activity
HCT-15 [4] = assay: Growth inhibition of human HCT-15 cells assessed as growth percentage at 1 uM incubated for 48 hrs by sulforhodamine B assay relative to control; format: functional; conditions: read-out: Activity
LOX IMVI = assay: Growth inhibition of human LOX IMVI cells assessed as growth percentage at 0.1 uM incubated for 48 hrs by sulforhodamine B assay relative to control; format: functional; conditions: read-out: Activity
HT-29 = assay: Growth inhibition of human HT-29 cells assessed as growth percentage at 0.01 uM incubated for 48 hrs by sulforhodamine B assay relative to control; format: functional; conditions: read-out: Activity
NCI-H522 [5] = assay: Growth inhibition of human NCI-H522 cells assessed as growth percentage at 10 uM incubated for 48 hrs by sulforhodamine B assay relative to control; format: functional; conditions: read-out: Activity
OVCAR-4 = assay: Growth inhibition of human OVCAR-4 cells incubated for 48 hrs by sulforhodamine B assay; format: functional
SR [6] = assay: Growth inhibition of human SR cells assessed as growth percentage at 1 uM incubated for 48 hrs by sulforhodamine B assay relative to control; format: functional; conditions: read-out: Activity
NCI-H322M = assay: Growth inhibition of human NCI-H322M cells assessed as growth percentage at 100 uM incubated for 48 hrs by sulforhodamine B assay relative to control; format: functional; conditions: read-out: Activity
CCRF-CEM [7] = assay: Growth inhibition of human CCRF-CEM cells assessed as growth percentage at 100 uM incubated for 48 hrs by sulforhodamine B assay relative to control; format: functional; conditions: read-out: Activity
MDA-MB-231 = assay: Growth inhibition of human MDA-MB-231/ATCC cells incubated for 48 hrs by sulforhodamine B assay; format: functional; conditions: Homo sapiens
TK-10 = assay: Growth inhibition of human TK-10 cells assessed as growth percentage at 10 uM incubated for 48 hrs by sulforhodamine B assay relative to control; format: functional; conditions: read-out: Activity
SF-539 = assay: Growth inhibition of human SF-539 cells incubated for 48 hrs by sulforhodamine B assay; format: functional
NCI/ADR-RES [8] = assay: Growth inhibition of human NCI/ADR-RES cells assessed as growth percentage at 0.01 uM incubated for 48 hrs by sulforhodamine B assay relative to control; format: functional; conditions: read-out: Activity
SNB-75 = assay: Growth inhibition of human SNB-75 cells assessed as growth percentage at 10 uM incubated for 48 hrs by sulforhodamine B assay relative to control; format: functional; conditions: read-out: Activity
Malme-3M [9] = assay: Growth inhibition of human Malme-3M cells assessed as growth percentage at 10 uM incubated for 48 hrs by sulforhodamine B assay relative to control; format: functional; conditions: read-out: Activity
MDA-MB-468 = assay: Growth inhibition of human MDA-MB-468 cells assessed as growth percentage at 0.01 uM incubated for 48 hrs by sulforhodamine B assay relative to control; format: functional; conditions: read-out: Activity
M14 = assay: Growth inhibition of human M14 cells assessed as growth percentage at 10 uM incubated for 48 hrs by sulforhodamine B assay relative to control; format: functional; conditions: read-out: Activity
A549 = assay: Growth inhibition of human A549/ATCC cells assessed as growth percentage at 10 uM incubated for 48 hrs by sulforhodamine B assay relative to control; format: functional; conditions: read-out: Activity
Malme-3M [10] = assay: Growth inhibition of human Malme-3M cells incubated for 48 hrs by sulforhodamine B assay; format: functional; conditions: Homo sapiens, Malme-3M
[11] = target: Fibroblast growth factor receptor 1 (Homo sapiens) (UniProt P11362); assay: Inhibition of human FGFR1 at 10 uM using myelin basic protein as substrate incubated for 40 mins in presence of [gamma33P]ATP by scintillation counting method relative to control
Chain of Fibroblast growth factor receptor 1 (Homo sapiens) (P11362 22-822 limits assumed): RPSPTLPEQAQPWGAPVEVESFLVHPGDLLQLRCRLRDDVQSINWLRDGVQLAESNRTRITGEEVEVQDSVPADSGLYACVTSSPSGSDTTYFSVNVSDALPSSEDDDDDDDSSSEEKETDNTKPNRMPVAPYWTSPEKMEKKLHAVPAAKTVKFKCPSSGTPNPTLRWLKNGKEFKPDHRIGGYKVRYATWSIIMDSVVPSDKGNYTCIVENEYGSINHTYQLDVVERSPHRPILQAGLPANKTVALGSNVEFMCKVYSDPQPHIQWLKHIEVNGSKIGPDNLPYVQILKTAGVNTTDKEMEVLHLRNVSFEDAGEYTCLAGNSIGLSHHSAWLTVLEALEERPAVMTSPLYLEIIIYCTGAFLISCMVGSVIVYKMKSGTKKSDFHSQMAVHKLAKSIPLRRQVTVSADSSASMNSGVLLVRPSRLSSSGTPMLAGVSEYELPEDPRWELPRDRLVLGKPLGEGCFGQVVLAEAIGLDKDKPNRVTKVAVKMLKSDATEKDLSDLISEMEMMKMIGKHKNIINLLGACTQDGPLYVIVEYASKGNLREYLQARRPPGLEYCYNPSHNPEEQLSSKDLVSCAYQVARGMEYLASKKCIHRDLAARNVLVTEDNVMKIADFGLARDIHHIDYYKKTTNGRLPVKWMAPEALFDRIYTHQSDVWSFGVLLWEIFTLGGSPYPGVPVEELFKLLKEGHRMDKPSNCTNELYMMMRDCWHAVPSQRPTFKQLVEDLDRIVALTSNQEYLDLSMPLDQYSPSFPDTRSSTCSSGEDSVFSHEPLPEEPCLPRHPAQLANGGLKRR

UACC-62 = assay: Growth inhibition of human UACC-62 cells assessed as growth percentage at 10 uM incubated for 48 hrs by sulforhodamine B assay relative to control; format: functional; conditions: read-out: Activity
HCT-15 [12] = assay: Growth inhibition of human HCT-15 cells assessed as growth percentage at 10 uM incubated for 48 hrs by sulforhodamine B assay relative to control; format: functional; conditions: read-out: Activity
SK-MEL-5 [13] = assay: Growth inhibition of human SK-MEL-5 cells assessed as growth percentage at 10 uM incubated for 48 hrs by sulforhodamine B assay relative to control; format: functional; conditions: read-out: Activity
KM12 = assay: Growth inhibition of human KM12 cells assessed as growth percentage at 10 uM incubated for 48 hrs by sulforhodamine B assay relative to control; format: functional; conditions: read-out: Activity
T47D = assay: Growth inhibition of human T47D cells assessed as growth percent at 0.1 uM incubated for 48 hrs by sulforhodamine B assay relative to control; format: functional; conditions: read-out: Activity
A498 = assay: Growth inhibition of human A498 cells assessed as growth percentage at 1 uM incubated for 48 hrs by sulforhodamine B assay relative to control; format: functional; conditions: read-out: Activity
RXF 393 = assay: Growth inhibition of human RXF 393 cells assessed as growth percentage at 100 uM incubated for 48 hrs by sulforhodamine B assay relative to control; format: functional; conditions: read-out: Activity
DU-145 [14] = assay: Growth inhibition of human DU-145 cells assessed as growth percentage at 10 uM incubated for 48 hrs by sulforhodamine B assay relative to control; format: functional; conditions: read-out: Activity
SK-MEL-5 [15] = assay: Growth inhibition of human SK-MEL-5 cells assessed as growth percentage at 0.01 uM incubated for 48 hrs by sulforhodamine B assay relative to control; format: functional; conditions: read-out: Activity
NCI-H522 [16] = assay: Growth inhibition of human NCI-H522 cells incubated for 48 hrs by sulforhodamine B assay; format: functional
OVCAR-8 = assay: Growth inhibition of human OVCAR-8 cells assessed as growth percentage at 10 uM incubated for 48 hrs by sulforhodamine B assay relative to control; format: functional; conditions: read-out: Activity
NCI/ADR-RES [17] = assay: Growth inhibition of human NCI/ADR-RES cells assessed as growth percentage at 100 uM incubated for 48 hrs by sulforhodamine B assay relative to control; format: functional; conditions: read-out: Activity
CCRF-CEM [18] = assay: Growth inhibition of human CCRF-CEM cells assessed as growth percentage at 0.1 uM incubated for 48 hrs by sulforhodamine B assay relative to control; format: functional; conditions: read-out: Activity
MOLT-4 = assay: Growth inhibition of human MOLT-4 cells assessed as growth percentage at 10 uM incubated for 48 hrs by sulforhodamine B assay relative to control; format: functional; conditions: read-out: Activity
SR [19] = assay: Growth inhibition of human SR cells assessed as growth percentage at 100 uM incubated for 48 hrs by sulforhodamine B assay relative to control; format: functional; conditions: read-out: Activity
COLO 205 = assay: Growth inhibition of human COLO 205 cells incubated for 48 hrs by sulforhodamine B assay; format: functional
NCI-H460 [20] = assay: Growth inhibition of human NCI-H460 cells assessed as growth percentage at 0.01 uM incubated for 48 hrs by sulforhodamine B assay relative to control; format: functional; conditions: read-out: Activity

## Nc1nc2[nH]c(CN3CCN(c4cc(Cl)cc(Cl)c4)CC3)c(CN3CCN(c4cc(Cl)cc(Cl)c4)CC3)c2c(=O)[nH]1
SK-MEL-5 [1]
  growth at 100 µM: -61%
NCI-H460 [2]
  growth at 100 µM: -58%
DU-145 [3]
  growth at 0.01 µM: 110%
HCT-15 [4]
  growth at 1 µM: 94%
LOX IMVI
  growth at 0.1 µM: 99%
HT-29
  growth at 0.01 µM: 105%
NCI-H522 [5]
  growth at 10 µM: 83.3%
OVCAR-4
  GI50: 1.58 µM
  TGI: 3.15 µM
OVCAR-4; read-out: LC50 (the source's name)
  CC50: 6.25 µM
SR [6]
  growth at 1 µM: 67%
NCI-H322M
  growth at 100 µM: -54%
CCRF-CEM [7]
  growth at 100 µM: -30%
MDA-MB-231; MDA-MB-231
  TGI: 3.98 µM
MDA-MB-231; MDA-MB-231, 48 h
  GI50: 2.01 µM
TK-10
  growth at 10 µM: 77.1%
SF-539
  GI50: 1.72 µM
  TGI: 3.26 µM
NCI/ADR-RES [8]
  growth at 0.01 µM: 101%
SNB-75
  growth at 10 µM: 63.7%
Malme-3M [9]
  growth at 10 µM: 74.3%
MDA-MB-468
  growth at 0.01 µM: 97%
M14
  growth at 10 µM: 79.7%
A549
  growth at 10 µM: 72.7%
Malme-3M [10]
  TGI: 3.93 µM
Malme-3M [10]; 48 h
  GI50: 2 µM
[11]
  inhibition: -8.65%
UACC-62
  growth at 10 µM: 77.8%
HCT-15 [12]
  growth at 10 µM: 67.4%
SK-MEL-5 [13]
  growth at 10 µM: 91%
KM12
  growth at 10 µM: 64.2%
T47D
  growth at 0.1 µM: 90%
A498
  growth at 1 µM: 75%
RXF 393
  growth at 100 µM: -28%
DU-145 [14]
  growth at 10 µM: 81.3%
SK-MEL-5 [15]
  growth at 0.01 µM: 96%
NCI-H522 [16]
  GI50: 1.74 µM
  TGI: 3.44 µM
OVCAR-8
  growth at 10 µM: 40.6%
NCI/ADR-RES [17]
  growth at 100 µM: 55%
CCRF-CEM [18]
  growth at 0.1 µM: 98%
MOLT-4
  growth at 10 µM: 23.6%
SR [19]
  growth at 100 µM: -30%
COLO 205
  GI50: 1.69 µM
  TGI: 3.56 µM
NCI-H460 [20]
  growth at 0.01 µM: 105%
